Measurements: US11584714B2 (priority 2018, dated 2023)
Structures can show the parent of a compound that is named as a salt. Where two headings read alike, the source gives them in different places.

Legend:
Assay type in all cases: biochemical
[1] = biological target: MASP-2 (Homo sapiens (Human), UniProt O00187); assay: MASP-2 inhibition (Ki)
[2] = biological target: Thrombin (Homo sapiens (Human), UniProt P00734); assay: Thrombin inhibition (Ki)
[3] = biological target: MASP-2 (CCP1-CCP2-SP) (Homo sapiens (Human), UniProt O00187); assay: biochemical
Chain of MASP-2 (CCP1-CCP2-SP) (O00187 445-686): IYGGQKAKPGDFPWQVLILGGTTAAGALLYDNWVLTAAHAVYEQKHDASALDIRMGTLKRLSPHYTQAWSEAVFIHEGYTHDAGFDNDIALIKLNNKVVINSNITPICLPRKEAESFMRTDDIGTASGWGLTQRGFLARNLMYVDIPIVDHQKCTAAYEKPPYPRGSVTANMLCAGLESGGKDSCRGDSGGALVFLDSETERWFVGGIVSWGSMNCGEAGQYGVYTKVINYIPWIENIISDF

[4] = biological target: mMASP-2 (Mus musculus (Mouse), UniProt Q91WP0); assay: Enzymatic inhibition of mMASP-2
Chain of mMASP-2 (Q91WP0 20-685): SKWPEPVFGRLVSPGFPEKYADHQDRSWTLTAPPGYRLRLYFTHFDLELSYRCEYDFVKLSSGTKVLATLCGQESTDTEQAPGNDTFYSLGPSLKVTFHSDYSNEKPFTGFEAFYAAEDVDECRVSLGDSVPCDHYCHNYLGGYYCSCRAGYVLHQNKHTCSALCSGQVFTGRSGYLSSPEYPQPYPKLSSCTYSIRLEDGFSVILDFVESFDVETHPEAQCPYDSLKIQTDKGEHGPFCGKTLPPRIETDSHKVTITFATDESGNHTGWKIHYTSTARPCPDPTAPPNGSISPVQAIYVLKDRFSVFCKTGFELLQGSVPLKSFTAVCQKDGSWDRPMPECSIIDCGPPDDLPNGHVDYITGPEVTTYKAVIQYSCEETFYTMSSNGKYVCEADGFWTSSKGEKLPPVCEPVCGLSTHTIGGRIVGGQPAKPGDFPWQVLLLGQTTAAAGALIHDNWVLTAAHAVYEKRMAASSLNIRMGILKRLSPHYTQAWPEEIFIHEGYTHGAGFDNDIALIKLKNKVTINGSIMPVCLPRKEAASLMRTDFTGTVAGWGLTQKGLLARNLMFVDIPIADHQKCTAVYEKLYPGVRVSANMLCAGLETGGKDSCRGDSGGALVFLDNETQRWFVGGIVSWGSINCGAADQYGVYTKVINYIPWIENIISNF

[5] = biological target: human α-thrombin (Homo sapiens (Human), UniProt P00734); assay: Enzymatic assay for thrombin (Boc-VPR-AMC substrate)
[6] = tested on: Lectin Pathway; assay: Lectin pathway activation assay in human serum (mannan-coated ELISA, C3c detection); conditions: 1% human serum
[7] = selectivity for MASP-2 inhibition versus thrombin

Chain of MASP-2 (O00187 16-686): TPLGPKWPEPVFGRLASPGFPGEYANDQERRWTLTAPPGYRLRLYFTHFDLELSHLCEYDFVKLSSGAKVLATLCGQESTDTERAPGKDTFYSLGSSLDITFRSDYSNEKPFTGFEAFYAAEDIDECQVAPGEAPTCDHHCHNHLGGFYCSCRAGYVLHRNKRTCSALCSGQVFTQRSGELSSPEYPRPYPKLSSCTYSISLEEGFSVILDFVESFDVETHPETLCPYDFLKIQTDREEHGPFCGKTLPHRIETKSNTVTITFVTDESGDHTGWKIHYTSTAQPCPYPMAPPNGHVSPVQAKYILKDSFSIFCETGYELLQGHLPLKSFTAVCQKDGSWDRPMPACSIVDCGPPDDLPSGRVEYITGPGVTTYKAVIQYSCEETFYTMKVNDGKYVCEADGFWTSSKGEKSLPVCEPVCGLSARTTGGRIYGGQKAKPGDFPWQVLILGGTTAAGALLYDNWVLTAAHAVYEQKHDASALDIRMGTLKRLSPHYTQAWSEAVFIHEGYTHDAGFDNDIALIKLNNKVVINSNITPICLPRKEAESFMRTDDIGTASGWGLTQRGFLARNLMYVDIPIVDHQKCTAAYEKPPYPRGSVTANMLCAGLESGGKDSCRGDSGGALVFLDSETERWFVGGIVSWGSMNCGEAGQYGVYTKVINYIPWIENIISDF

Compound	Ki [1] [µM]	Ki ([3]; read-out: MASP-2 Ki) [µM]	MASP-2 vs. thrombin selectivity [3, 7]	Ki ([4]; read-out: mMASP-2 Ki) [µM]	Ki ([5]; read-out: Thrombin Ki) [µM]	IC50 [6] [µM]	Ki ([5]; Thrombin Ki (μM)) [µM]	also measured
CCc1cc2c(=O)oc(-c3ccccc3C)nc2s1 [compound 43]	< 10							Ki ([2]; read-out: Thrombin Ki): 25 to 100 µM
O=Cc1ccc(OC(=O)c2ccco2)cc1 [compound 21]	< 10							Ki ([2]; read-out: Thrombin Ki): < 10 µM
O=c1oc(-c2ccco2)nc2cc(Cl)ccc12 [compound 11]	< 10							Thrombin Ki (μM) [2]: No Activity
Cc1c(/N=C/c2ccc(OC(=O)c3ccco3)cc2)c(=O)n(-c2ccccc2)n1C [compound 34]	< 10							Ki ([2]; read-out: Thrombin Ki): 25 to 100 µM
O=c1[nH]c2ccccc2c(=O)o1 [compound 26]	< 10							Ki [2]: 25 to 100 µM
CCCc1nnc(NC(CC)OC(=O)c2cc(C)nc3ccccc23)s1 (centres unmarked) [compound 23]	< 10							Thrombin Ki (μM) [2]: No Activity
O=c1oc(-c2cccs2)nc2ccccc12 [compound 10]	< 10							Ki ([2]; read-out: Thrombin Ki): 25 to 100 µM
CC(=O)Nc1ccc(OC(=O)c2ccccc2NC(=O)c2ccccc2Br)cc1 [compound 33]	< 10							Ki ([2]; read-out: Thrombin Ki): < 10 µM
O=C1OC(/C=C/c2ccccc2)=NC/1=C\c1ccco1 [compound 6]	< 10							Ki ([2]; read-out: Thrombin Ki): 25 to 100 µM
COc1ccccc1C1=N/C(=C\c2cccs2)C(=O)O1 [compound 5]	10 to 25							
O=C(O)/C=C/C=C/c1ccco1 [compound 38]	10 to 25							
O=C1c2ccccc2C(=O)N1Oc1ccc(C(F)(F)F)cc1[N+](=O)[O-] [compound 35]	25 to 100							
Cc1nc(N)ccc1CNC(=O)[C@H](C)NC(=O)[C@H]1C[C@H](Cc2cc(Cl)ccc2Cl)CN1 [compound 1444, (2R,4S)—N—((S)-1-(((6-Amino-2-methylpyridin-3-yl)methyl)amino)-1-oxopropan-2-yl)-4-(2,5-dichlorobenzyl)pyrrolidine-2-carboxamide Dihydrochloride]		< 0.5	** (≥5.0 to <25-fold)	< 0.5	< 0.5	0.5 to 5		
Cc1cnc(NCCc2ccccc2)c(=O)n1CC(=O)NCc1cnc2[nH]cc(Cl)c2c1 [compound 1490, N-((3-Chloro-1H-pyrrolo[2,3-b]pyridin-5-yl)methyl)-2-(6-methyl-2-oxo-3-(phenethylamino)pyrazin-1(2H)-yl)acetamide Acetate salt]		< 0.5	−− (<1.0-fold)		< 0.5	5 to 50		Ki [4]: 2.5 to 10 µM
Cc1cc(C)c(O)c(CNC(=O)[C@H](C)NC(=O)[C@H]2C[C@H](c3ccccc3)CN2)c1 [compound 1383, (2R,4R)—N—((S)-1-((2-Hydroxy-3,5-dimethylbenzyl)amino)-1-oxopropan-2-yl)-4-phenylpyrrolidine-2-carboxamide Hydrochloride]				2.5 to 10	> 25	5 to 50		Ki [3]: 0.5 to 2.5 µM
Cc1nc(N)ccc1CNC(=O)Cn1c(C)cnc(NCCc2ccccc2)c1=O [compound 1488]		< 0.5	−− (<1.0-fold)	2.5 to 10	< 0.5	0.5 to 5		
COc1ccc2cc(C[C@@H]3CN[C@@H](C(=O)N[C@@H](C)C(=O)NCc4ccc(N)nc4C)C3)ccc2c1 [compound 1453, (2R,4S)—N—((S)-1-(((6-Amino-2-methylpyridin-3-yl)methyl)amino)-1-oxopropan-2-yl)-4-((6-methoxynaphthalen-2-yl)methyl)pyrrolidine-2-carboxamide Dihydrochloride]		< 0.5	**** (≥100-fold)	< 0.5		< 0.05	10 to 25	
Cc1nc(N)ccc1CNC(=O)[C@H](C)NC(=O)[C@H]1C[C@H](Cc2ccc3nsnc3c2)CN1 [compound 1449, (2R,4S)—N—((S)-1-(((6-Amino-2-methylpyridin-3-yl)methyl)amino)-1-oxopropan-2-yl)-4-(benzo[c][1,2,5]thiadiazol-5-ylmethyl)pyrrolidine-2-carboxamide Di-trifluoroacetate salt]		< 0.5	**** (≥100-fold)	< 0.5		0.5 to 5	2.5 to 10	
Cc1nc(N)ccc1CNC(=O)[C@H](C)NC(=O)[C@H]1C[C@H](Cc2cccc(Br)c2)CN1 [compound 1452, (2R,4S)—N—((S)-1-(((6-Amino-2-methylpyridin-3-yl)methyl)amino)-1-oxopropan-2-yl)-4-(3-bromobenzyl)pyrrolidine-2-carboxamide Dihydrochloride]		< 0.5	**** (≥100-fold)	< 0.5		0.5 to 5	0.5 to 2.5	
Cc1nc(N)ccc1CNC(=O)[C@H](CCC(N)=O)NC(=O)[C@H]1C[C@H](Cc2ccccc2)CN1 [compound 1382, (S)—NI-((6-Amino-2-methylpyridin-3-yl)methyl)-2-((2R,4S)-4-benzylpyrrolidine-2-carboxamido)pentanediamide Di-trifluoroacetate salt]		< 0.5	*** (≥25 to <100-fold)		> 25	5 to 50		Ki [4]: 2.5 to 10 µM
C[C@H](NC(=O)[C@H]1C[C@H](Cc2ccccc2)CN1)C(=O)NCc1cnc2[nH]cc(Cl)c2c1 [compound 1334, (2R,4S)-4-Benzyl-N-((S)-1-(((3-chloro-1H-pyrrolo[2,3-b]pyridin-5-yl)methyl)amino)-1-oxopropan-2-yl)pyrrolidine-2-carboxamide Di-hydrochloride]		< 0.5	−− (<1.0-fold)	< 0.5	< 0.5			selectivity for MASP-2 over thrombin ([1]; MASP-2 vs thrombin): MASP-2 selective
Cc1nc(N)ccc1CNC(=O)[C@H](C)NC(=O)[C@H]1C[C@H](Cc2ccc(Cl)c(Br)c2)CN1 [compound 1451, (2R,4S)—N—((S)-1-(((6-Amino-2-methylpyridin-3-yl)methyl)amino)-1-oxopropan-2-yl)-4-(3-bromo-4-chlorobenzyl)pyrrolidine-2-carboxamide Di-trifluoroacetate salt]		< 0.5	**** (≥100-fold)	< 0.5		0.5 to 5	10 to 25	
CC(=O)Nc1ccc(CCN[C@H](CCc2ccccc2)C(=O)N[C@@H](C)C(=O)NCc2ccc(C(=N)N)cc2)cc1 [compound 1345, (R)-2-((4-acetamidophenethyl)amino)-N-((S)-1-((4-carbamimidoylbenzyl)amino)-1-oxopropan-2-yl)-4-phenylbutanamide dihydrochloride]		< 0.5	**** (≥100-fold)	< 0.5	< 0.5	< 0.05		
C[C@H](NC(=O)[C@H](N)CCc1ccccc1)C(=O)NCc1ccc2nc(N)[nH]c2c1 (single isomer, unassigned) [compound 1040, Di-trifluoroacetate salt]		< 0.5		< 0.5	> 25	0.5 to 5		MASP-2 vs. thrombin selectivity ([3]; MASP-2 inhibition versus thrombin): **** (>100-fold)
Cc1nc(N)ccc1CNC(=O)[C@H](C)NC(=O)[C@H]1C[C@H](Cc2cccc(Cl)c2)CN1 [compound 1328, (2R,4S)—N—((S)-1-(((6-amino-2-methylpyridin-3-yl)methyl)amino)-1-oxopropan-2-yl)-4-(3-chlorobenzyl)pyrrolidine-2-carboxamide Dihydrochloride]		< 0.5	**** (≥100-fold)	< 0.5		0.05 to 0.5	0.5 to 2.5	
Cc1nc(N)ccc1CNC(=O)[C@H](C)NC(=O)[C@H]1C[C@H](Cc2cc(Cl)cc(Cl)c2)CN1 [compound 1435, (2R,4S)—N—((S)-1-(((6-Amino-2-methylpyridin-3-yl)methyl)amino)-1-oxopropan-2-yl)-4-(3,5-dichlorobenzyl)pyrrolidine-2-carboxamide Dihydrochloride]		< 0.5	**** (≥100-fold)	< 0.5		0.5 to 5	10 to 25	
Cc1nc(N)ccc1CNC(=O)[C@H](C)NC(=O)[C@H]1C[C@H](Cc2ccc(F)c3ccccc23)CN1 [compound 1423, (2R,4S)—N—((S)-1-(((6-Amino-2-methylpyridin-3-yl)methyl)amino)-1-oxopropan-2-yl)-4-((4-fluoronaphthalen-1-yl)methyl)pyrrolidine-2-carboxamide Dihydrochloride]		< 0.5	**** (≥100-fold)	< 0.5		0.05 to 0.5	2.5 to 10	
Cc1nc(N)ccc1CNC(=O)[C@H](C)NC(=O)[C@@H](CCc1ccccc1)NCc1ccc(Cl)cc1 [compound 1375, (R)—N—((S)-1-(((6-Amino-2-methylpyridin-3-yl)methyl)amino)-1-oxopropan-2-yl)-2-((4-chlorobenzyl)amino)-4-phenylbutanamide]			** (≥5.0 to <25-fold)	10 to 25		0.5 to 5	10 to 25	Ki [3]: 0.5 to 2.5 µM
Cc1cc(Cl)cc(CNC(=O)[C@H](C)NC(=O)[C@H]2C[C@@H](Cc3ccccc3)CCN2)c1O [compound 1363, (2R,4S)-4-Benzyl-N-((S)-1-((5-chloro-2-hydroxy-3-methylbenzyl)amino)-1-oxopropan-2-yl)piperidine-2-carboxamide Hydrochloride]		< 0.5	**** (≥100-fold)	< 0.5		0.05 to 0.5	2.5 to 10	
Cc1nc(N)ccc1CNC(=O)[C@H](C)NC(=O)[C@H]1C[C@@H](Cc2ccccc2)CCN1 [compound 1353, (2R,4S)—N—((S)-1-(((6-Amino-2-methylpyridin-3-yl)methyl)amino)-1-oxopropan-2-yl)-4-benzylpiperidine-2-carboxamide Dihydrochloride]		< 0.5	*** (≥25 to <100-fold)	< 0.5	< 0.5	< 0.05		
